Experimental data as given in ChEMBL document CHEMBL1141848, “Prenylagaramides A and B, new cyclic peptides from two strains of oscillatoria agardhii” (J Nat Prod, 1999).
Active and inactive are the calls of the source. Residues, ends and D or L forms follow the SMILES beside them. *: point of attachment. Prenyl = CC(C)=CC*

Assays:
[1] = Inhibition of trypsin
[2] = target: Prothrombin (Homo sapiens) (UniProt P00734); experiment: Inhibition of thrombin
[3] = target: Plasminogen (Homo sapiens) (UniProt P00747); experiment: Inhibition of plasmin
[4] = Inhibition of chymotrypsin
[5] = Inhibition of elastase
[6] = target: Cytosol aminopeptidase (Homo sapiens) (UniProt P28838); experiment: Inhibition of leucine amino peptidase
[7] = target: T1, Papain (Carica papaya) (UniProt P00784); experiment: Inhibition of papaya papain
T1 sequence (whole entry): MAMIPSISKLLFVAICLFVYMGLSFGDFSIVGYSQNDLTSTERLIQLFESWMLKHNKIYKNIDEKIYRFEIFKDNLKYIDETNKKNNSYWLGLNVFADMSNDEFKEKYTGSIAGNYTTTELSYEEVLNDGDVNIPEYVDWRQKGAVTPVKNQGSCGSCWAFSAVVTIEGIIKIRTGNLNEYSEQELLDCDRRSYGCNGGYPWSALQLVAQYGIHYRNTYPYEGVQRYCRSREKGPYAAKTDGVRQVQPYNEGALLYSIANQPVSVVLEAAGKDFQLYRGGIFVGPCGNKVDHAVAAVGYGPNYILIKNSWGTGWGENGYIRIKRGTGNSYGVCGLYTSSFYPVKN

[8] = tested on: P388; experiment: Cytotoxicity against mouse P388 cells; type: functional, cell-based

Measured: Activity

Chain of Plasminogen (Homo sapiens) (P00747 97-580 limits assumed): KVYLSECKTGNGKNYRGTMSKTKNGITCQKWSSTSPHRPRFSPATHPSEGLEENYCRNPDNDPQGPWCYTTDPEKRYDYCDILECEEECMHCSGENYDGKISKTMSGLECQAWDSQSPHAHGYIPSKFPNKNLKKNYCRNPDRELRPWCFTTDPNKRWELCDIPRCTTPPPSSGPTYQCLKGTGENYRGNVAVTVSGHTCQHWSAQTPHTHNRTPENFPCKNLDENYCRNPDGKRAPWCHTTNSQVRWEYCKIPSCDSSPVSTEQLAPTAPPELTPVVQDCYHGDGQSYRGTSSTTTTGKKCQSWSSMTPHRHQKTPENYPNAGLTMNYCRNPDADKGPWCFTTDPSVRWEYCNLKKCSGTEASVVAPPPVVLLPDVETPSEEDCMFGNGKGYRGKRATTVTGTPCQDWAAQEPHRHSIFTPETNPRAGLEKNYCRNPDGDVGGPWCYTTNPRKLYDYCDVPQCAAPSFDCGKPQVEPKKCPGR
Chain of Plasminogen (Homo sapiens) (P00747 581-810 limits assumed): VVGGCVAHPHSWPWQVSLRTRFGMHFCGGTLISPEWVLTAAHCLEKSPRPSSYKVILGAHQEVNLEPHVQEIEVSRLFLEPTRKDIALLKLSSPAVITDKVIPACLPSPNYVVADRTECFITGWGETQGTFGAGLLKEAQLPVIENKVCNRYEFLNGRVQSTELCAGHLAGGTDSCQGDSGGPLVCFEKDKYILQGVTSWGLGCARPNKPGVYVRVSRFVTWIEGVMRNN
Chain of Cytosol aminopeptidase (Homo sapiens) (P28838 whole entry): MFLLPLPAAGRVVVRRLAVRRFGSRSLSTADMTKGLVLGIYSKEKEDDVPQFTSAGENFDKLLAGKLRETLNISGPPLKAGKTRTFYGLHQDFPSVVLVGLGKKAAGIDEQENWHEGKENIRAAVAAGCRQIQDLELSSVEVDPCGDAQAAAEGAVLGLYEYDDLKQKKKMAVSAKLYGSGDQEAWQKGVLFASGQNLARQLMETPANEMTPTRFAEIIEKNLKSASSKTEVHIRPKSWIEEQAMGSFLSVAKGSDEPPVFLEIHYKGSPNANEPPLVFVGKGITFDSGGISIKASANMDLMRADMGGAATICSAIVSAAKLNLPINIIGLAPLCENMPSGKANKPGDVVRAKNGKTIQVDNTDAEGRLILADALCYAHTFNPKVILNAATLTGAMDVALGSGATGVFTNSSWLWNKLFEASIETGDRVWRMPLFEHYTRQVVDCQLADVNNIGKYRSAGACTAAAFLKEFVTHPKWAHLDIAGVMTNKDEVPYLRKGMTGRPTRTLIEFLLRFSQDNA

CC(C)=CCOc1ccc(C[C@@H]2NC(=O)[C@@H]3CCCN3C(=O)[C@H](CC(N)=O)NC(=O)[C@H](Cc3ccccc3)NC(=O)[C@H](Cc3ccccc3)NC(=O)[C@H](CCC(=O)O)NC(=O)CNC(=O)[C@H]([C@@H](C)O)NC(=O)CNC2=O)cc1 (cyclo(EFFNPY(Prenyl)GTG))
inactive: [1] | [2] | [3] | [4] | [5] | [6] | [7] | [8]

CC[C@H](C)[C@@H]1NC(=O)[C@@H]2CCCN2C(=O)[C@H](Cc2ccc(O)cc2)NC(=O)[C@H](CC(C)C)NC(=O)[C@H](Cc2ccc(OCC=C(C)C)cc2)NC(=O)[C@@H]2CCCN2C(=O)[C@H](CC(N)=O)NC1=O (cyclo(INPY(Prenyl)LYP))
inactive: [1] | [2] | [3] | [4] | [5] | [6] | [7] | [8]
